{"source": "patent US20180132485A1", "about": "“USE OF HYDROXYAPATITE AS A CARRIER OF NUTRITIONAL ELEMENTS AND VEGETAL EXTRACTS FOR TREATING PLANTS” (NDG NATURAL DEVELOPMENT GROUP S.R.L., priority 2015, published 2018)", "tested_on": "Agrobacterium vitis", "assay": "Inhibition of growth of Agrobacterium vitis strains on PDA plates (diameters of inhibitory zones)", "type": "cell-based", "conditions": "3% v/v; 6 strains; 28° C., 2-5 days", "method": "The biological efficacy of the test agents was determined in terms of inhibition of the growth. To this aim 6 strains of Agrobacterium vitis from different growing areas worldwide, were grown in vitro. The strains of A. vitis, were inoculated on Petri dishes containing PDA (Potato Dextrose Agar), in the ratio of approximately 10 to 8 cells. After plating the bacteria, 5 holes (6 mm) were drilled in the substrate (one at the center of the plate and 4 equally spaced around the central hole). Each plate was filled with 20 microliters of test substance at the concentrations indicated; for each substance and concentration, 3 replies were set up. The central hole was filled with 20 microliters of sterile water, which represented the untreated control. The plates were incubated at 28° C., for 2-5 days.\nAfter the expiration of the incubation period, for each tested strain and for each substance and concentration, the diameters of the inhibitory zones were considered (average of two orthogonal diameters of each inhibitory area). The collected data were subjected to analysis of variance ANOVA and comparison of averages with SNK test.", "data": [{"smiles": "OCl", "note": "[Sodium Hypochlorite]", "values": [{"measurement": "inhibition of the growth (inhibitory zones)", "value": "completely inhibited"}]}]}
